Results from patent publication US6984649B1, “Pyridine derivatives” (Bayer Aktiengesellschaft, priority 2000, dated 2006).
pIC50: −log10 of the molar value.

Each molecule was assayed against T1, human IKK-β (Homo sapiens, UniProt O14920) (assay: IKK-β kinase inhibitory assay). Details: compounds as yielded by solid phase synthesis, purity about 40 to 90%, read-out: In vitro activity grade (In vitro IC50).
T1 construct: A cDNA fragment encoding human IKK-β open reading frame was generated by PCR; His tag (from pcDNA3.1/His C); made in house; host or cells: Sf21 insect cells (baculovirus); substrate made in E. coli
T1 sequence (O14920 1-756): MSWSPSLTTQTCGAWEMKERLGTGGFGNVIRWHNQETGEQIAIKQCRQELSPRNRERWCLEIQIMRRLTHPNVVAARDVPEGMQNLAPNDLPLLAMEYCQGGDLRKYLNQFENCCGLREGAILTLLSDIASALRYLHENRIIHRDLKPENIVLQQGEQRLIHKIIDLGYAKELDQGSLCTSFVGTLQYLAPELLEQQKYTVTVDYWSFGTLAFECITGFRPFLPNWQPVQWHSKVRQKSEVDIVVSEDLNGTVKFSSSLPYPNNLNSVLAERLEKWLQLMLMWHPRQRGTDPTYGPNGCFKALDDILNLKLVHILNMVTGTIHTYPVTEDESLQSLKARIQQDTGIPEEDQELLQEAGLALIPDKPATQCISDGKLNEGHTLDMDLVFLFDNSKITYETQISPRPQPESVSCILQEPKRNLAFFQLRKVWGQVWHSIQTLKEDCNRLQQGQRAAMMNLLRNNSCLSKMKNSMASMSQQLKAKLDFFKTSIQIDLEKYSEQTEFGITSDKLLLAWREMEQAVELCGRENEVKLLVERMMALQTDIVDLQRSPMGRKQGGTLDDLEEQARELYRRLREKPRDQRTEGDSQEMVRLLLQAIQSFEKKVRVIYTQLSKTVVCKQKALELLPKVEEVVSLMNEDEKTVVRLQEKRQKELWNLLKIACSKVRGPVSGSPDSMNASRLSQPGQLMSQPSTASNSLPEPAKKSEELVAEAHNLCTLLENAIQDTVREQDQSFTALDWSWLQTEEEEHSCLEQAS
Format: biochemical
In short: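 His-tagged human IKK-β from baculovirus-infected Sf21 cells (0.6 μg/ml final) phosphorylates biotinylated GST-IκBα(1-54) (0.2 μM) in Tris-HCl pH 7.6 buffer with MgCl2. ATP with [γ-33P]ATP added, then 2 h at room temperature. Biotinylated substrate captured on streptavidin plates; bound radioactivity counted by scintillation.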

pIC50, > 6.30:
N#Cc1c(C2CCCN(Cc3ccccc3)C2)cc(-c2ccccc2O)nc1N (centres unmarked) [Example 3-05]
Nc1nc(-c2c(O)cccc2OCC2CC2)cc(C2CCCNC2)c1CNC(=S)Nc1ccccc1 (centres unmarked) [Example 23-15]
N#Cc1c(C2CCCNC2)cc(-c2c(O)cccc2OCc2ccncc2)nc1N (centres unmarked) [Example 2-44]
CC(C)Oc1cccc(O)c1-c1cc(C2CCCNC2)c(C#N)c(N)n1 (centres unmarked) [Example 2-54]
N#Cc1c(C2CCCNC2)cc(-c2c(O)cccc2OCc2ccc(F)cc2F)nc1N (centres unmarked) [Example 2-26]
CCCOc1cccc(O)c1-c1cc(C2CCCNC2)c(C#N)c(N)n1 (centres unmarked) [Example 2-55]
CC(C)OC(=O)N1Cc2c(C3CCCNC3)cc(-c3c(O)cccc3OCC3CC3)nc2NC1=O (centres unmarked) [Example 24-05]
N#Cc1c(C2CCCNC2)cc(-c2c(O)cccc2OCc2ccc(C(F)(F)F)cc2)nc1N (centres unmarked) [Example 2-36]
